Test results reported in patent US20220152031A1, “PYRIDAZINONES AND METHODS OF USE THEREOF” (Goldfinch Bio, Inc., priority 2019, published 2022).
Where two headings read alike, the source gives them in different places.

What was measured:
[1] = test system: deoxycorticosterone acetate (DOCA)-salt hypertensive rats; assay: Albuminuria in DOCA-salt hypertensive rats; type: in vivo, Sprague Dawley rats
Description: The aim of this study was to evaluate the effects of the TRCP5 inhibitor, AO, to attenuate the development and/or progression of albuminuria in deoxycorticosterone acetate (DOCA)-salt hypertensive rats.
The DOCA-salt hypertensive rat model is a well-established model of mineralocorticoid hypertension with renal dysfunction, characterized by increase levels of urinary protein and albumin excretion. [Schenk et al., “The pathogenesis of DOCA-salt hypertension,” J. Pharmacol. Toxicol. Methods (May 1992) 27(3):161-170; Gomez-Sanchez et al., “Mineralocorticoids, salt and high blood pressure,” Steroids (1996) 61:184-188.]
Six to seven weeks old Sprague Dawley rats were unilaterally nephrectomized; after one-week recovery, rats were implanted with a DOCA pellet (45 mg) and provided tap water containing 0.9% NaCl and 0.2% KCl (Day 1) for a 3 weeks treatment. On Day 1, DOCA-salt rats received one daily dose, subcutaneously (SC), of AO at 30 mg/kg for 3 weeks; control animals for DOCA treatment were administered vehicle or eplerenone, an aldosterone blocker; sham animals, implanted with a silicone-water pellet, were given tap water and received SC administration of the vehicle. Proteinuria, albuminuria and arterial blood pressure as well as body weight were recorded every week.

TRPC5 = target: T1, TRPC5 (Homo sapiens, UniProt Q9UL62); assay: Automated patch clamp assay, HEK293 cells overexpressing TRPC5, current block after rosiglitazone stimulation; type: cell-based; conditions: whole cell automated patch
T1 construct: expressed in transfected cells
T1 sequence (Q9UL62 1-973): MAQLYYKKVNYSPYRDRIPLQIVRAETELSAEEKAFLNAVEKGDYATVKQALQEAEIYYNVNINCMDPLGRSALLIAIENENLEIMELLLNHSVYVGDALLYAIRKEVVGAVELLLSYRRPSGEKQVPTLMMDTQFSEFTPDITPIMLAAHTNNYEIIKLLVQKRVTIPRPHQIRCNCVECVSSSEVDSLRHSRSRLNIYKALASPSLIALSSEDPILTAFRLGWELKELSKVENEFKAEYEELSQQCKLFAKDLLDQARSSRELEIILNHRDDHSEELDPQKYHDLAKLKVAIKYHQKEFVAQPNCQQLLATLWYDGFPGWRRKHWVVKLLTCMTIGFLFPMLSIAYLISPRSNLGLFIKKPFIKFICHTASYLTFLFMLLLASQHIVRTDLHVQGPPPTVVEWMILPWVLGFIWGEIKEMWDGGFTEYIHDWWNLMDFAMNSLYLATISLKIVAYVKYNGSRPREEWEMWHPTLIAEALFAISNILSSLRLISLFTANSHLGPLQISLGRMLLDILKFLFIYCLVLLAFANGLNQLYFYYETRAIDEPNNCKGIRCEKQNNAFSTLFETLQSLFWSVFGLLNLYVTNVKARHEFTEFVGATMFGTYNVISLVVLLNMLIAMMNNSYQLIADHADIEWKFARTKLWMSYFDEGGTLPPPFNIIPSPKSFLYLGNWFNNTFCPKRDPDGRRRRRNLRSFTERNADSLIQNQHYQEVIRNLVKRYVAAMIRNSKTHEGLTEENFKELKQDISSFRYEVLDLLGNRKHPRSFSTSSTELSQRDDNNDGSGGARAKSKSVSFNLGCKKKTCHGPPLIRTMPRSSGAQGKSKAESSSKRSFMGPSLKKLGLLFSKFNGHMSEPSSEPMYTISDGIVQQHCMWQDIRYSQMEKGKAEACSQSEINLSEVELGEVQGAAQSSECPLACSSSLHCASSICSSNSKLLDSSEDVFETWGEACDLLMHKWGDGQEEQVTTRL

[2] = test system: human iPSC derived kidney organoids; assay: Human iPSC derived kidney organoids with protamine sulfate injury; type: cell-based; conditions: pretreated 0.2, 2, 20 uM for 20 minutes, 300 ug/mL protamine sulfate 1 hour; vs protamine sulfate alone
Protocol: Human iPSC derived kidney organoids differentiated for 22 days [Generation of kidney organoids from human pluripotent stem cells. Takasato M, Er P X, Chiu H S, Little M H. Nat Protoc. 2016 September; 11(9):1681-92. doi: 10.1038/nprot.2016.098. Epub 2016 Aug. 18.] were pretreated with 0.2, 2, 20 uM of AO or DMSO for 20 minutes then insulted with 300 ug/mL of protamine sulfate for 1 hour; 3 technical replicate organoids were treated for each condition. Organoids were washed twice with 1×DPBS−/−, fixed in 4% PFA for 25 minutes at room temperature, washed twice with 1×DPBS−/−, and transferred to 30% sucrose at 4° C. overnight, then snap frozen in Tissue-Tek O.C.T. compound. Organoids were cryosectioned at […] thickness and stained for phalloidin. Tiled images were acquired using a Zeiss LSM880 Airyscan super resolution confocal microscope using ZEN 2.3. Mean intensity values were quantified using Fiji/ImagJ1.52d.

murine podocytes = assay: Murine podocytes with protamine sulfate injury; type: cell-based; conditions: pretreated 0.1, 1, 10 uM for 20 minutes, 300 ug/mL protamine sulfate 1 hour
Protocol: Conditionally immortalized murine podocytes were differentiated for 14 days in gamma-interferon-free media[Synaptopodin Is a Coincidence Detector of Tyrosine versus Serine/Threonine Phosphorylation for the Modulation of Rho Protein Crosstalk in Podocytes. Buvall L, Wallentin H, Sieber J, Andreeva S, Choi H Y, Mundel P, Greka A. J Am Soc Nephrol. 2017 March; 28(3):837-851. doi: 10.1681/ASN.2016040414. Epub 2016 Sep. 14.]. Murine podocyte cells were pretreated with 0.1, 1, 10 uM of AO or DMSO for 20 minutes then insulted with 300 ug/mL of protamine sulfate (PS) for 1 hour; 3 technical replicate plates were treated for each condition. Murine cells were washed with 1×DPBS −/−, fixed in 4% PFA+4% sucrose for 10 minutes at room temperature, washed 3 times with 1×DPBS −/−, permeabilized with 0.3% triton, and probed for phalloidin, synaptopodin, and DAPI (Proteasomal degradation of Nck1 but not Nck2 regulates RhoA activation and actin dynamics. Buvall L, Rashmi P, Lopez-Rivera E, Andreeva S, Weins A, Wallentin H, Greka A, Mundel P. Nat Commun. (2013) 4:2863. doi: 10.1038/ncomms3863.). Tiled images were acquired using a Zeiss LSM880 Airyscan super resolution confocal microscope using ZEN 2.3. Manual quantitation of cells with or without collapsed actin cytoskeleton were quantified. […]

[3] = DOCA-AO compared to sham animals, week 1 to 3
[4] = DOCA-salt treatment followed by AO

- IC50 (TRPC5; 80 mV, read-out: TRPC5_QP_XC50_80): 0.01 to 1000 nM
- IC50 (TRPC5; 100 mV, read-out: TRPC5_QP_X50_100): 0.01 to 1000 nM
Structure (SMILES): O=C1CN(c2cn[nH]c(=O)c2Cl)CCN1Cc1ccccc1C(F)(F)F [AO]
- urinary albumin excretion ([1]; 30 mg/kg SC daily, week 1 to week 3, vs DOCA-vehicle control rats, significance at week 3 (p value 0.0011)): attenuated
- adverse effects ([1]; 30 mg/kg SC once daily for 3 weeks): No adverse effects were observed
- body weight ([1]; DOCA vs DOCA-AO, 30 mg/kg SC once daily for 3 weeks): no significant difference
- diastolic BP [1, 3]: elevated
- mean arterial blood pressure (BP) [1, 3]: elevated
- systolic BP [1, 3]: elevated
- urine volume produced per day [1, 4]: elevated
- water intake [1, 4]: elevated
- injury from protamine sulfate (mean phalloidin intensity per organoid) [2]: decreased injury
- murine cells protected from cytoskeletal collapse induced by protamine sulfate (murine podocytes): ~20%
